Data from PubChem BioAssay (NCI).
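These data come from cells grown in 96-well plates and exposed to compound for 48 hours at five concentrations. At the TGI there is no net growth.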

Assays:
Test in all cases: NCI anticancer screen, dose series, 48 h
[1] = system: COLO 205 colon
[2] = system: MCF7 breast
[3] = system: RXF 393 renal
[4] = system: OVCAR-4 ovarian
[5] = system: A498 renal
[6] = system: HT29 colon
[7] = system: BT-549 breast
[8] = system: DU-145 prostate
[9] = system: SK-MEL-28 melanoma
[10] = system: NCI-H226 lung
[11] = system: NCI-H23 lung
[12] = system: SW-620 colon
[13] = system: PC-3 prostate
[14] = system: 786-0 renal
[15] = system: M14 melanoma
[16] = system: MDA-MB-231 breast
[17] = system: HL-60(TB) leukemia

Row | SMILES | TGI [1] [µM] | TGI [2] [µM] | TGI [3] [µM] | TGI [4] [µM] | TGI [5] [µM] | TGI [6] [µM] | TGI [7] [µM] | TGI [8] [µM] | TGI [9] [µM] | TGI [10] [µM] | TGI [11] [µM] | TGI [12] [µM] | TGI [13] [µM] | TGI [14] [µM] | TGI [15] [µM] | TGI [16] [µM] | TGI [17] [µM]
1 | O=S(=O)(O)C(=Nc1cccc(Cc2ccccc2)c1)Nc1cccc(Cc2ccccc2)c1 | 34.3 | 37.9 | 33.3 | 41 | 45.8 | 34.5 | 33.4 | 35.4 | 38.8 | 33.7 | 31.9 | 52.1 | 35.1 | 29 | 31.8 | 38.2 | 95.7
2 | C=CCC1(OC(C)=O)C2OC(=O)C1(O)OCC2O (stereo not given) | > 100 | > 100 | > 100 | > 100 | > 100 | > 100 | > 100 | > 100 | > 100 | > 100 | > 100 | > 100 | > 100 | > 100 | > 100 | > 100 | > 100
3 | COc1ccc(C(=O)c2sc(Nc3ccc(Cl)cc3)nc2N)cc1 | > 100 | > 100 | > 54 | > 61.4 | > 75 | > 64.9 | > 100 | > 100 | > 100 | > 100 | > 51.6 | > 100 | > 68.3 | 28.6 | > 100 | > 92.4 | > 100
4 | O=C(CCCN1CCC2(CC1)CC(=O)N(N1CCCCCC1)C2=O)c1ccccc1 | > 100 | > 100 | > 100 | > 100 | > 100 | > 100 | > 100 | > 100 | > 100 | > 100 | > 100 | – | > 100 | > 100 | > 100 | > 100 | > 100
5 | Clc1cc(Cl)cc(C=NC23CC4CC(CC(C4)C2)C3)c1 | > 10 | > 10 | > 10 | > 10 | > 10 | > 10 | > 10 | > 10 | > 10 | > 10 | > 10 | > 10 | > 10 | > 10 | > 10 | > 10 | > 10
6 | CCN(CC)/C(Sc1ccccc1)=C(\C(Cl)=C(Cl)Cl)[N+](=O)[O-] | 31.5 | 30.2 | 36.8 | > 100 | 36.3 | 45.8 | 38.1 | 34.9 | 32 | 42.8 | 36.1 | 40.3 | 33.3 | 37.5 | 37.5 | 50.5 | 5.94
7 | C=CCc1cccc2cc(C(=O)Nc3ccccc3)c(=N)oc12 | > 100 | > 100 | > 100 | 74.9 | 50.3 | > 100 | > 100 | > 100 | > 100 | > 100 | > 100 | > 100 | > 100 | > 100 | > 100 | > 100 | > 100
8 | Cn1c2ccc3cc2c(=S)c2cc(ccc21)OCCOCCOCCOCCOCCO3 | > 10 | > 10 | > 10 | > 10 | > 10 | > 10 | > 10 | > 10 | > 10 | > 10 | > 10 | > 10 | > 10 | > 10 | > 10 | > 10 | > 10
9 | CC(=O)OCC1OC(c2nc3ccccc3s2)=CC(OC(C)=O)C1OC(C)=O (stereo not given) | > 100 | > 100 | > 100 | > 100 | > 100 | > 100 | > 100 | > 100 | > 100 | > 100 | > 100 | > 100 | > 100 | > 100 | – | > 100 | > 100
10 | CCCCc1ccc(Nc2nc(SC)c3[nH]cnc3n2)cc1 | > 100 | > 100 | > 100 | > 100 | > 78.5 | > 100 | > 100 | > 100 | > 100 | > 100 | > 100 | > 100 | > 100 | > 100 | > 100 | > 100 | > 46.4
11 | Nc1cccc(/C=C/C(=O)N2CCN(CCOC(c3ccccc3)c3ccccc3)CC2)c1 | 33.1 | 31.5 | 28.7 | 26.1 | 31.6 | 21.6 | 29.2 | 28.5 | 28.9 | 39.8 | 35.5 | 35 | 28.9 | 30.3 | 26 | 29.1 | 32
12 | Cc1cn(C2CC(O)C(COC(=O)NCCC(F)(F)C(F)(F)C(F)(F)C(F)(F)F)O2)c(=O)[nH]c1=O (stereo not given) | > 100 | > 100 | > 100 | > 100 | > 100 | > 100 | > 100 | > 100 | > 100 | > 100 | > 100 | > 100 | > 100 | > 100 | > 100 | > 100 | > 100
13 | CC(C)=CCC/C(=C/CC/C(=C\CCc1ccoc1)C(=O)O)C(=O)O | > 100 | > 100 | > 100 | > 100 | > 100 | > 100 | > 100 | > 100 | > 100 | > 100 | > 100 | > 100 | > 100 | > 100 | > 100 | > 100 | > 100
14 | N#CC(=C1CCN(CCCC(=O)c2ccc(F)cc2)CC1)c1ccccc1 | > 100 | > 100 | > 100 | > 100 | > 100 | > 100 | > 100 | > 100 | > 100 | > 100 | > 100 | > 100 | > 100 | > 100 | – | > 100 | > 100
15 | Cc1cccc(CP(Cc2cccc(C)c2)CC2(Cp3c4ccccc4c4ccccc43)COC2)c1 | 2.96 | > 100 | > 100 | > 100 | > 100 | > 100 | > 100 | > 100 | > 100 | > 100 | > 100 | > 100 | > 100 | > 31.6 | > 100 | > 37 | 2.78
16 | CCCNC(=O)CCC(C)C1CCC2C3C(C[C@H](OC(C)=O)[C@]12C)[C@@]1(C)CCC2(C[C@H]1C[C@H]3OC(C)=O)OOC1(CC[C@]3(C)C4C[C@H](OC(C)=O)[C@]5(C)C(C(C)CCC(=O)NCCC)CCC5C4[C@H](OC(C)=O)C[C@@H]3C1)OO2 (stereo not given in full) | > 100 | > 100 | > 87.1 | > 100 | > 100 | > 100 | > 100 | > 100 | > 100 | > 84.7 | > 100 | > 100 | > 100 | > 100 | > 100 | > 83.4 | > 100
17 | O=C1NC(=S)N/C1=C\c1ccc(Br)s1 | > 100 | > 100 | > 100 | > 100 | > 100 | > 100 | > 100 | > 100 | > 100 | > 100 | > 100 | > 100 | > 100 | > 100 | – | > 100 | > 100
18 | Brc1cc(CCOC2CCCCO2)c(-c2sccc2CCOC2CCCCO2)s1 (stereo not given) | > 100 | > 80 | 3 | > 100 | > 100 | > 100 | > 100 | > 100 | > 100 | > 100 | > 100 | > 100 | > 100 | > 100 | > 100 | > 100 | 42.3
19 | COC(=O)C1CN=CN1CCc1ccccc1 (stereo not given) | > 100 | > 100 | > 100 | > 100 | > 100 | > 100 | > 100 | > 100 | > 100 | > 100 | > 100 | > 100 | > 100 | > 100 | > 100 | > 100 | > 100
20 | O=C(CCc1ccc(O)c(O)c1)NCCc1cc(O)cc(O)c1 | > 100 | > 100 | > 100 | – | > 100 | > 100 | > 100 | > 100 | > 100 | > 100 | > 100 | > 100 | > 100 | > 100 | > 100 | > 100 | > 100
